# Legend:
# [1] = tested on: human-derived fibroblast(ATCC, Hs68); experiment: Cell toxicity and activity, MTT; assay type: cell-based; settings: for Cell activity: at LD50
# Description: Test cells of human-derived fibroblast(ATCC, Hs68) were cultivated in DMEM medium added by 10% FBS at 37° C. in the condition of 5%CO2, 100% humidity. 1×10^5 cells/ml of cells were seeded in 96 plate and incubated at 37° C. for 24 hr. Samples sterilized by 0.2 µm filter were added according to the fixed concentration and further incubated at 37° C. for 24 hr. Then, MTT regent was added and incubated at 37° C. for 4 hr, then the culture solution was removed. After, 1N NaOH isopropane solution was added and stirred for 20 min, the absorbance at 565 nm was measured. Then, the cell apoptosis concentration was determined by comparing the untreated cell (survival ratio: 100%).
# Cell activity at LD50 was 20%, which was satisfactory level.
# [2] = Anti-oxidant effect, activated oxygen removal by NBT method; assay type: biochemical; settings: 0.1%(wt/wt) sample solution; NBT absorbance at 560 nm; suppression ratio
# Description: And whitening activity and anti-oxidant activity were measured by determining tyrosinase inhibition effect and using NBT method. 0.1% vitamin C, 0.1% vitamin E, kojic acid and albutin were used as sample. To determine anti-oxidant effect, activated oxygen produced from xanthine and xanthine oxidase were measured using NBT method and activated oxygen removal effect of the tested materials was determined. Activated oxygen was produced by xanthine and xanthine oxidase. The activated oxygen was determined by measuring the blue color produced from the reaction of the activated oxygen and Nitroblue tetrasolium (NBT) at 560 nm of wavelength. 6) Xanthines oxidase solution: xanthine oxidase(Boehringer) was diluted about 100 times so that its blank test absorbance within the range of 0.2-0.23. In other word, the purified water was diluted so that the absorbance change be A560=0.3/20 min. (1)1,2,3,4 and 5 are introduced into vial bottle and 0.1 ml of sample solution is added, which are maintained at 5° C. for 10 min. (2) It is added by 6 and stirred immediately, followed by 20 min of culture at 25° C. (3) After 7 is added, the reaction is stopped. Then, absorbance (St) at 560 nm is measured. (4) Blank test is carried out in the same way except distilled water is used instead of sample solution and absorbance (Bt) is measured. 5) Blank test for sample is carried out in the same way except distilled water is used instead of 6 and absorbance (Bo) is measured. The effect is calculated in the following way. Suppression ratio (%)=[1−(St−So)/(Bt−Bo)×100
# tyrosinase = experiment: Tyrosinase inhibition effect (whitening activity); assay type: biochemical; settings: 0.1%(wt/wt) sample solution; tyrosine 0.2 mg/ml, tyrosinase 680 units/ml, 37° C.
# Description: And whitening activity and anti-oxidant activity were measured by determining tyrosinase inhibition effect and using NBT method. 0.1% vitamin C, 0.1% vitamin E, kojic acid and albutin were used as sample. […] A solution for blank test was tyrosine 1 ml+phosphoric acid buffer 1 ml+distilled water 1 ml. The procedure of the test is as follows. [table] 1) A,B and C are mixed and maintained at 37° C. for 30 min. 2) D is added and maintained for just 30 min. 3) After 10 min±10 sec, they are took out and the reaction ends in a refrigerating condition by ice. 4) when comparing the absorbance the comparative samples, the absorbencies of comparative group are tested and then those of blank test group are test(at […]). Tyrosinase activity inhibition effect(%) us calculated in the following way and the result is shown as Table 2. Tyrosinase activity inhibition effect (%): [1−(E−B/C)]×100 (B: blank test group, C: control group, E: test group)
# [3] = tested on: collagen in the skin of hairless mice; experiment: Collagen formation effect, skin tissue test for collagen proliferation promoting effect; assay type: in vivo; settings: 0.1%(wt/wt) 1,3-BG solution applied to body of hairless mice
# Description: To confirm the collagen formation effect of the synthesized 3,9-diferulylcoumestrol, 10 female hairless mice of 8week age were prepared. From the 2 mice, skin was taken out and standard dye samples were prepared using the side and middle part of the skin for investigation the collagen proliferation level. The other 8 mice were divided into two for the applied group and the control group.
# In the same test condition, the whole body except head and belly of the applied group and the control group and were applied by 3,9-diferulycoumestrol 0.1%(wt/wt) 1,3-BG solution and 1,3-BG solution, for 15 days and 30 days.
# From the applied group and the control group respectively, 2 mice were selected and their skins were cut out, then dyed samples were obtained from the side and middle part of the skin. After 30 days, skin dyed samples were obtained in the same way. For each of the obtained 10 dyed skin samples of the control group and the applied group, collagen proliferation promoting effect were compared on the basis of the skin condition of &week age. […] From the result, it was experimentally confirmed that 3,9diferulylcoumestrol is excellent in collagen synthesis and collagen proliferation promotion(FIG. 2)
# [4] = 24 hr, diluted in 1,3-butylenglycol
Compound,Cell activity [1] [%],Anti-oxidant effect (%) [2] [%],Tyrosinase inhibition effect (%) (tyrosinase),other results
"COc1cc(C=CC(=O)Oc2ccc3c(c2)oc(=O)c2c4ccc(OC(=O)C=Cc5ccc(O)c(OC)c5)cc4oc32)ccc1O [3,9-diferulylcoumestrol]",20,42,76,"concentration range in which cell apoptosis did not show [1, 4]: ≤ 78 µM; concentration range in which cell apoptosis did not show (%) [1, 4]: ≤ 0.0048%; collagen synthesis and proliferation in skin ([3]; after 2 weeks (15 days), vs control groups): collagen synthesis and proliferation were found; collagen proliferation in corium layer and tissue density ([3]; after 30 days): collagen proliferation in corium layer was increased and the tissue density was raised"
OC[C@H]1O[C@@H](Oc2ccc(O)cc2)[C@H](O)[C@@H](O)[C@@H]1O [Albutin],,,40,
O=C1O[C@H]([C@@H](O)CO)C(O)=C1O [Ascorbic acid],,,30,
O=c1oc2cc(O)ccc2c2oc3cc(O)ccc3c12 [Coumestrol],20,28,,Evaluation (LD50) [1]: Safe; Evaluation (cell activity) [1]: excellent; LD50 % concentration ([1]; 24 hr): 0.0048%; LD50 mole concentration(mM) ([1]; 24 hr): 0.078 mM
O=c1cc(CO)occ1O [Kojic acid],,,91,
Tocopherol,,43,,
